Literature values as cited in patent publication US20180333418A1, “USE OF PAN FGFR INHIBITORS AND METHOD OF IDENTIFYING PATIENTS WITH CANCER ELIGIBLE FOR TREATMENT WITH A PAN FGFR INHIBITOR” (BAYER PHARMA AKTIENGESELLSCHAFT, priority 2014, published 2018).

Columns and labels:
[1] = system: ovarian cancer cell line A2780; details: Guagnano et al.; cited from earlier work
[2] = system: FGFR1-amplified osteosarcoma cell line G-292; details: Guagnano et al.; cited from earlier work

For CCN1CCN(c2ccc(Nc3cc(N(C)C(=O)Nc4c(Cl)c(OC)cc(OC)c4Cl)ncn3)cc2)CC1 [BGJ398], the “sensitivity in vitro towards treatment” value [1] is given as “sensitive” and the anti-proliferative effects [2] is given as “anti-proliferative effects”.
